The target in one assay is T1, LTB4 receptors (Homo sapiens, UniProt Q15722).
T1 construct: vital U937 cells (differentiated human monocytary cell line with naturally expressed LTB4 receptors); endogenous in cells; host or cells: U937 cells (differentiated, intact/vital)
As to the kind of experiment: U937 receptor binding test/LTB4. The note with it: 3H-LTB4 (3 nM), vital U937 cells, incubation 2 hours at 0°C; read-out: Receptor binding U937-8 Ki. How it is done:
a) U937—Receptor Binding Test/LTB4
The binding of ^3H-LTB4 (3 nM) to vital U937 cells (differentiated human monocytary cell line with naturally expressed LTB4 receptors) is inhibited, in dosage dependent manner, by an increasing concentration of the test substance (incubation 2 hours at 0°C.). After the unbound ^3H-LTB4 has been separated off by membrane filtration, the radioactivity of the bound LTB4 receptor/^3H-LTB4 complex is quantified by scintillation measurement. The affinity (inhibition constant Kj) was determined by repeated adaptation of a displacement curve to the measurements (program: “coupled mass equilibria” on Wang computer).

The subject of assay [1] is LTB4-induced neutrophilic influx in the mouse ear. Briefly: Leukotrien-B4-induced accumulation of neutrophiles in the mouse ear. The class given is in vivo. The note with it: po, read-out: LTB4-induced neutroph. Accum. p.o. ED50. As to the method:
c) Leukotrien-B4-indicated Accumulation of Neutrophiles in the Mouse Ear
Evaluation of the neutrophilic influx by photometric measurement (mOD/min) of the myeloperoxidase activity (Bradley et al.: J. Invest. Dermatol. 78, 206, 1982) in the skin of the ear. Increase 6 hours after topical treatment of the left ear with LTB4 (250 ng on each side) compared with the right ear (2×5 μl acetone as solvent).
Substance administered by oral route in 1% tylose 300, 30 minutes before the LTB4 stimularion.

Assay [2] deals with neutrophilic granulocytes. As to the kind of experiment: LTB4-induced aggregation of neutrophilic granulocytes in the guinea-pig (in vitro). The note with it: Cavia porcellus, 2 min, inhibition 2 minutes after incubation with test substance in polydiol/DMSO, read-out: LTB4-induced neutroph. Aggr. EC50. The class given is cell-based. How it is done:
b) Aggregation of Neutrophilic Granulocytes in the Guinea-pig
Indicated by LTB4 in vitro (increase in light transmission in the aggregometer, recorded in mm; each experiment repeated twice): inhibition 2 minutes after incubation with test substance in polydiol/DMSO.

These results are taken from US6489365B1, “Amidine derivatives, the preparation and use thereof as medicaments with Itb4 antagonistic effect” (Boehringer Ingelheim KG, priority 1992, dated 2002).

Broadly, the Ki is a dissociation constant, usually derived from enzyme kinetics or from competition with a known ligand. A word on the ED50: it is the midpoint of the dose-response relation. A word on the EC50: it is the concentration needed to bring the measured effect to its halfway point.

T1 sequence (Q15722 whole entry): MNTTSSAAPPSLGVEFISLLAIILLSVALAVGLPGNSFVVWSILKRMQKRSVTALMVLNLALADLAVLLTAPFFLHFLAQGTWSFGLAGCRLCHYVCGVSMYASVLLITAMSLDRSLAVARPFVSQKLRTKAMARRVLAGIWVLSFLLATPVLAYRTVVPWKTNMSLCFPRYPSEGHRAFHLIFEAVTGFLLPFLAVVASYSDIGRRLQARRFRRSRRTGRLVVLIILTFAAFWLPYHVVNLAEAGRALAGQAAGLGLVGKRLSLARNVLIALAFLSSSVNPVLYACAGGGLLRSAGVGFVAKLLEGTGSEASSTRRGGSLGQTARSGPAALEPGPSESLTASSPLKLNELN

Take `CCCc1c(OC)cccc1OCCCCOc1ccc(C(=N)N)cc1`: the Ki at LTB4 receptors turned out to be 0.012 µM. Also, the ED50 in assay [1] was 0.8 mg/kg. The EC50 in assay [2] was 1.9 µM.
